In patent publication US12686694B2, “Method of extracting carbonic acid, aliphatic acids, esters and alcohols from an aqueous medium” (EVONIK OPERATIONS GMBH, priority 2019, dated 2026):

Assay: Extraction of hexanol from aqueous solution with trialkylphosphine in alkane or pure trialkylphosphine
Type: physicochemical
[1] = hexanol extraction without buffer in aqueous phase, mass ratio 9 to 1
[2] = with ammonium acetate buffer in aqueous phase, mass ratio 9 to 1

Equilibrium pH (hexanol extraction without buffer in aqueous phase): 7.01
Aq. Hexanoic acid conc. (after) [1]: 2.40 g/kg
Aq. Hexanoic acid conc. (before) [1]: 3.70 g/kg
Aq. Hexanol conc. (after) [2]: 2.75 g/kg
Org. Hexanol conc. [2]: 12.44 g/kg
Org. Hexanol conc. (without buffer in aqueous phase, mass ratio 9 to 1): 11.65 g/kg
SMILES: CCCCCCCCCCCCCC [none (100% tetradecane), tetradecane]
